From EP3132692A1, “Compositions comprising small molecular inhibitors suitable to inhibit and stimulate signaling pathways in a manner leading to prevention of muscle atrophy” (priority 2015, dated 2017)

Columns and labels:
[1] = tested on: aged men; conditions: treatment for 7 days; cited from earlier work
[2] = Body composition by dual energy x-ray absorptiometry (DEXA), efficacy study; format: in vivo, men
Procedure: (§1) In the efficacy study, 18 resistance trained men with at least 5 years of experience in weight lifting voluntarily participated. Participants were divided in 3 equal groups; receiving placebo (hypromellose, 2 times a day), (-)-epicatechin ((EPI), 2x 150 mg a day) and (-)-epicatechin combined with hesperetin and myricetin ((E+H+M), 2x 150+100+50 mg a day). Maximally trained individuals were chosen as further muscle gains in such groups are usually minimal, even with dietary interventions. This is primarily explained due to a fact that such trained individuals reached so called "natural genetic plateau" where muscle tissue works within physiological optimum defined by the genetic blueprints, so even radical interventions (except anabolic steroids) and exercise regime cannot bring significant results. This was confirmed by participants as they had no means to achieve particularly better results over last few years of exercise. All subjects were asked to maintain the same caloric intake during 12 week study 5 days a week exercise. During 2 months study participants were taking 30 g of post exercise amino acid blend (whey, soy and casein protein) with following profile per 100 g: • Alanine 7.1g, arginine 9.2 g, aspartic acid 6.2 g, glutamic acid 21.5 g, glycine 12.2 g, histidine 1.1 g, isoleucine 6.9 g, leucine 11.1 g, methionine 0.3 g, phenylalanine 2.7 g, proline 11.2 g, serine 2.7 g, threonine 1.5 g, tyrosine 0.5 g and valine 5.8 g.
(§2) Body composition was examined at the beginning and the end of study using dual energy x-ray absorptiometry - DEXA scans (DiscoveryTM by Hologic). Total body estimates of fat and non-bone lean tissue were determined according to company supplied algorithms. Muscle thickness for Vastus lateralis and Triceps brachii lateralis was examined at the beginning and the end of study by B-mode ultrasound imaging (Toshiba PowerVision 8000) as the distance between the subcutaneous adipose tissue and inter-muscular belly interface. Total Cretine Kinase as a marker of muscle damage was performed by VITROS® 4600 (Ortho Clinical Diagnostics) at the beginning and the end of study.

[3] = tested on: resistance trained men; experiment: Total creatine kinase as marker of muscle damage, efficacy study; format: in vivo
Procedure: as §1, with “During 2 months study participants were taking 30 g of post exercise amino acid blend (whey, soy and casein protein) with following profile per 100 g: • Alanine 7.1g, arginine 9.2 g, aspartic acid 6.2 g, glutamic acid 21.5 g, glycine 12.2 g, histidine 1.1 g, isoleucine 6.9 g, leucine 11.1 g, methionine 0.3 g, phenylalanine 2.7 g, proline 11.2 g, serine 2.7 g, threonine 1.5 g, tyrosine 0.5 g and valine 5.8 g.” left out
Body composition was examined at the beginning and the end of study using dual energy x-ray absorptiometry - DEXA scans (DiscoveryTM by Hologic). Total body estimates of fat and non-bone lean tissue were determined according to company supplied algorithms. […]

[4] = tested on: resistance trained men; experiment: Muscle thickness by B-mode ultrasound imaging, efficacy study; format: in vivo
Procedure: as §1, §2

[5] = tested on: resistance trained men; experiment: Strength measures: 1-repetition maximum (1-RM) bench press and squat, efficacy study; format: in vivo
[6] = target: T1, PPARγ (Homo sapiens, UniProt P37231); conditions: cited from earlier work
T1 sequence (P37231 1-505): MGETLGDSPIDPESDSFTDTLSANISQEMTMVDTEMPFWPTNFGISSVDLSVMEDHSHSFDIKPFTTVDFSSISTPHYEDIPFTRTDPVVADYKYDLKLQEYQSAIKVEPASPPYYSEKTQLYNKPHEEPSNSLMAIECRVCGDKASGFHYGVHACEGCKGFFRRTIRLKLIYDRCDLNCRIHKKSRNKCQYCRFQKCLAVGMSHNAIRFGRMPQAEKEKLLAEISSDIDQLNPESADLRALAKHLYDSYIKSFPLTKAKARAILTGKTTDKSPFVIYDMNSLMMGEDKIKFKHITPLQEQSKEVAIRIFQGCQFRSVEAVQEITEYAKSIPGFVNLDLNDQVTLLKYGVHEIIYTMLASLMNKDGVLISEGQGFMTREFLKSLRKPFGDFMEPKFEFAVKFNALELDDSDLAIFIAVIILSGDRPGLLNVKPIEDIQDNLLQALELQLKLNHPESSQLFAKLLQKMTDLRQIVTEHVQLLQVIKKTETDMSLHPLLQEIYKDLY

[7] = target: T2, PPARα (Homo sapiens, UniProt Q07869); conditions: cited from earlier work
T2 sequence (Q07869 1-468): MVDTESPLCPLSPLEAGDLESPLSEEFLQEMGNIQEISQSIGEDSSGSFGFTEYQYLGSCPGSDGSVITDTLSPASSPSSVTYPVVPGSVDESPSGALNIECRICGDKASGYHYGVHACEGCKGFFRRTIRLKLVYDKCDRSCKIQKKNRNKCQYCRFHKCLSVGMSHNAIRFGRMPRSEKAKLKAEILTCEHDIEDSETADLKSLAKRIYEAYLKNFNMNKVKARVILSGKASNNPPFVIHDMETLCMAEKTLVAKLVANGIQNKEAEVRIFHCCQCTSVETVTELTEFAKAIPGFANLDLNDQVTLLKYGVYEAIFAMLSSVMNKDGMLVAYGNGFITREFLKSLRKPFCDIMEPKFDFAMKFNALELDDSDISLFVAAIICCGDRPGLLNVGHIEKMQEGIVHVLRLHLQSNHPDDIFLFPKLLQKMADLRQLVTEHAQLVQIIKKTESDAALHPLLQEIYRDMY

[8] = tested on: PDE4 isomer; conditions: cited from earlier work
[9] = target: TGFβ-II receptor (Homo sapiens, UniProt P37173); conditions: 100µM; cited from earlier work
[10] = via orange juice alongside 150 mL yogurt; cited from earlier work
[11] = tested on: UGT enzymes; conditions: after absorption; cited from earlier work
[12] = tested on: mice subjected to freeze injury (tibialis); conditions: injections at 50mg/kg for six days; relative to control; cited from earlier work
[13] = tested on: myoblast C2C12 cells; conditions: 100µM; low mitogen medium; cited from earlier work
[14] = target: human DNA topoisomerase II (topo II); conditions: cited from earlier work
[15] = tested on: C. Elegans; conditions: cited from earlier work
[16] = BEGGINING of study, resistance trained men
[17] = END of 12 week study, EPI 2x 150 mg a day, E+H+M 2x 150+100+50 mg a day

Chain of TGFβ-II receptor (P37173 23-567): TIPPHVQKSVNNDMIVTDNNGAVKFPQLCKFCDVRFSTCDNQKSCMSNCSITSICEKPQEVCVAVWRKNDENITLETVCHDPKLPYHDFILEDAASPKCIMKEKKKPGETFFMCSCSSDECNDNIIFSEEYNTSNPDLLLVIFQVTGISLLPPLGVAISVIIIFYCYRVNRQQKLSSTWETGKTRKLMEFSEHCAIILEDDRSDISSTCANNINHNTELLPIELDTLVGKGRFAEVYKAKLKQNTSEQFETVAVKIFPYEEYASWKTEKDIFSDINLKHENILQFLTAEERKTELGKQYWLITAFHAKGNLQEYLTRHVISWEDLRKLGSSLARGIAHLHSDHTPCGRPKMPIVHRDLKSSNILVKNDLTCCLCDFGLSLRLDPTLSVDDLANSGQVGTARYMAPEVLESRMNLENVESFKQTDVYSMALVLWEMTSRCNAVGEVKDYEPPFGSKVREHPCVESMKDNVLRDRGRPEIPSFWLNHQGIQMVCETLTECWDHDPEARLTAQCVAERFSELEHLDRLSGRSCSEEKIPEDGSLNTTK

For `Oc1cc(O)c2c(c1)O[C@H](c1ccc(O)c(O)c1)[C@H](O)C2` [EPI, (-)-epicatechin], the hand grip strength [1] is given as “increases”, the “ratio of plasma follistatin/myostatin” value [1] is given as “increases” and the Body fat [2, 16] is given as 11.2 ± 5.3 kg. It also gave a Body mass [2, 16] of 93.2 ± 14.6 kg, a Lean body mass [2, 16] of 76.4 ± 5.8 kg and a Body fat [2, 17] of 9.1 ± 4.2 kg. The Body mass [2, 17] was 93.8 ± 10.5 kg, the Lean body mass [2, 17] was 77.2 ± 5.8 kg and the “Total Creatine Kinase (CK reff range: 38-120 ng/ml)” value [3, 16] was 86 ± 24 ng/mL. The “Total Creatine Kinase (CK reff range: 38-120 ng/ml)” value [3, 17] was 73 ± 16 ng/mL, the “Triceps Brachii Lateralis thickness” value [4, 16] was 30.8±4.4 mm and the “Vastus Lateralis thickness” value [4, 16] was 23.8±3.9 mm. The “Triceps Brachii Lateralis thickness” value [4, 17] was 33.8±2.2 mm, the “Vastus Lateralis thickness” value [4, 17] was 24.6±2.9 mm and the “1- RM BENCH PRESS” value [5, 16] was 148±21. For the same compound, the “1-RM SQUAT” value [5, 16] was 153 ± 24 kg and the “1-RM SQUAT” value [5, 17] was 170 ± 22 kg.
In the case of `COc1ccc(C2CC(=O)c3c(O)cc(O)cc3O2)cc1O` (stereo not shown) [hesperetin, 5,7,3'-trihydroxy-4'-methoxyflavanone], the “concentration range of concentration dependent stimulation of PPARγ activity” value [6] is given as 20 to 160 µM, the “concentration range of concentration dependent stimulation of PPARα activity” value [7] is given as 20 to 160 µM and the IC50 [8] is given as 28.2 ± 1.1 µM. For the same compound, the “ability of a ligand to associate with the TGFβ-II receptor” value [9] was “approximately halve”.
For `COc1ccc(C2CC(=O)c3c(O)cc(OC4OC(COC5OC(C)C(O)C(O)C5O)C(O)C(O)C4O)cc3O2)cc1O` (stereo not shown) [hesperidin, hesperetin-7-O-rutinoside], the “reduction of Cmax of the main metabolite (hesperitin-7-O-glucuronide)” value [10] is given as 29%, the “reduction of overall exposure (AUC) of the main metabolite” value [10] is given as 27% and the “found as hesperetin monoglucuronide” value [11] is given as “up to 87%”. The found as sulphoglucuronides [11] was 13%, the muscle regenerative capabilities [12] was “significantly enhanced” and the myocyte differentiation [13] was “able to promote myocyte differentiation”.
In the case of `O=c1c(O)c(-c2cc(O)c(O)c(O)c2)oc2cc(O)cc(O)c12` [myricetin], the IC50 [14] is given as 27.5 µM, the “prolongation of average lifespan” value ([15]; C. Elegans) is given as 18% and the “prolongation of maximal lifespan” value ([15]; C. Elegans) is given as 21.7%. For the same compound, the “increase of average lifespan” value ([15]; mev-1(kn1) mutants) was 16%.
